In ChEMBL document CHEMBL4219048, “Identification of cytotoxic, glutathione-reactive moieties inducing accumulation of reactive oxygen species via glutathione depletion” (Bioorg Med Chem, 2018):
The source made the active and inactive calls. The calls are words filed in the database; no cut-off is given here.

What was measured:
[1] = test system: HeLa; experiment: Induction of GSH depletion in human HeLa cells at 10 uM after 1 hr by Ellman's reagent based assay; format: functional
[2] = test system: U2OS; experiment: Induction of ROS levels in human U2OS cells at 10 uM after 30 mins by CM-H2DCFDA/Hoechst-based fluorescence microscopic analysis relative to 10 uM CDNB; format: functional
[3] = test system: U2OS; experiment: Induction of GSH depletion in human U2OS cells assessed as GSH content at 10 uM by GSH/GSSG-Glo assay relative to DMSO; format: functional
[4] = test system: HeLa; experiment: Induction of GSH depletion in human HeLa cells at 0.1 to 100 uM after 1 hr by GSH/GSSG-glo assay relative to control; format: functional, cell-based
[5] = test system: HeLa; experiment: Induction of ROS induced cytotoxicity in human HeLa cells assessed as reduction in cell viability at 2.5 to 20 uM incubated for 24 hrs measured at 2 hrs interval by propidium iodide-staining based live cell imaging analysis; format: functional
[6] = test system: HeLa; experiment: Induction of ROS levels in human HeLa cells at 10 uM after 1 hr by CM-H2DCFDA/Hoechst-based fluorescence microscopic analysis relative to 10 uM CDNB; format: functional
[7] = GSH reactivity in PBS buffer assessed as compound-GSH conjugate formation at 100 uM after 1 hr in presence of GSH by UHPLC/ESI-MS method; format: physicochemical
[8] = test system: HeLa; experiment: Induction of ROS induced cytotoxicity in human HeLa cells assessed as reduction in cell viability at 10 uM incubated for 24 hrs measured at 2 hrs interval by propidium iodide-staining based real time live cell imaging analysis; format: functional
[9] = test system: HeLa; experiment: Induction of ROS induced cytotoxicity in human HeLa cells assessed as morphological changes at 10 uM incubated for 24 hrs measured after 2 hrs by propidium iodide-staining based real time live cell imaging analysis; format: functional
[10] = test system: HeLa; experiment: Induction of ROS induced cytotoxicity in human HeLa cells at 5 uM incubated for 24 hrs in presence of BSO measured at 2 hrs interval by propidium iodide staining based real time live cell imaging analysis; format: functional
[11] = test system: HeLa; experiment: Induction of ROS induced cytotoxicity in human HeLa cells assessed as reduction in cell viability at 5 uM incubated for 24 hrs measured at 2 hrs interval by propidium iodide-staining based real time live cell imaging analysis; format: functional
[12] = test system: HeLa; experiment: Induction of GSH depletion in human HeLa cells after 1 hr by GSH/GSSG-glo assay relative to control; format: functional, cell-based
[13] = test system: HeLa; experiment: Induction of ROS induced cytotoxicity in human HeLa cells at 10 uM administered after 1 hr pretreatment with NAC incubated for 24 hrs measured at 2 hrs interval by propidium iodide staining based real time live cell imaging analysis; format: functional
[14] = GSH reactivity in PBS buffer assessed as retention time for compound-GSH conjugate formation at 100 uM after 1 hr in presence of GSH by UHPLC/ESI-MS method; format: physicochemical
[15] = test system: HeLa; experiment: Induction of ROS induced cytotoxicity in human HeLa cells at 5 uM administered after 1 hr pretreatment with NAC incubated for 24 hrs measured at 2 hrs interval by propidium iodide staining based real time live cell imaging analysis; format: functional
[16] = test system: HeLa; experiment: Induction of GSH depletion in human HeLa cells at 5 uM after 1 hr by Ellman's reagent based assay; format: functional
[17] = test system: HeLa; experiment: Induction of ROS induced cytotoxicity in human HeLa cells at 2.5 uM incubated for 24 hrs in presence of BSO measured at 2 hrs interval by propidium iodide staining based real time live cell imaging analysis; format: functional
[18] = test system: HeLa; experiment: Induction of GSH depletion in human HeLa cells at 20 uM after 1 hr by Ellman's reagent based assay; format: functional

Question: For O=[N+]([O-])c1ccc(Cl)c([N+](=O)[O-])c1, which Activity [1] is on record?
Answer: Active

Question: For CCCS(=O)(=O)c1ncc(Cl)c(C(=O)Nc2nc3ccc(F)cc3s2)n1, which Activity [2] is on record?
Answer: 97%

Question: And the Activity [3]?
Answer: 11.22%

Question: With O=c1c(Br)c(Br)cnn1Cc1ccccc1 as the compound, how does the Activity [4] read?
Answer: Active

Question: And the Activity [2]?
Answer: 77%

Question: And the Activity [3]?
Answer: 37.49%

Question: Which results are given for CC(NC(=O)Cn1ncc(Cl)c(Cl)c1=O)c1ccc(F)cc1 (configuration not stated)?
Answer: Activity [2]: 79%; Activity [3]: 22.59%

Question: Which Activity [5] does the source give for COc1cccc(CNC(=O)COC(=O)c2nc(Cl)c(Cl)c(Cl)c2Cl)c1 here?
Answer: inactive

Question: What about the Activity [4] of the same compound?
Answer: inactive

Question: What about the Activity [6] of the same compound?
Answer: 12.14%

Question: And the Activity [7]?
Answer: Active

Question: What about the Activity [1] of the same compound?
Answer: inactive

Question: Which Activity [2] does the source give for COc1ccc2c(c1)CCCN2S(=O)(=O)c1ccc(-n2ncc(Cl)c(Cl)c2=O)cc1 here?
Answer: 52%

Question: What about the Activity [3] of the same compound?
Answer: 29.49%

Question: Which results are given for O=C1CC(c2cccc3ccccc23)CC1=O?
Answer: Activity [2]: 110%; Activity [3]: 24.43%

Question: With O=C(c1c(Cl)nc(Cl)c(Cl)c1Cl)N1CCOCC1 as the compound, how does the Activity [4] read?
Answer: Active

Question: With O=C(Cn1ncc(Br)c(Br)c1=O)C12CC3CC(CC(C3)C1)C2 as the compound, how does the Activity [4] read?
Answer: Active

Question: What about the Activity [2] of the same compound?
Answer: 88%

Question: And the Activity [3]?
Answer: 13.2%

Question: Which results are given for NC(=O)C1CCN(C(=O)c2nc(Cl)c(Cl)c(Cl)c2Cl)CC1?
Answer: Activity [4]: Active; Activity [6]: 98.33%; Activity [7]: Active; Activity [1]: Active; Activity [2]: 55%; Activity [8]: Active; Activity [3]: 24.15%

Question: For O=c1c(Br)c(Br)cnn1CC(O)COc1cccc(Br)c1 (configuration not stated), which Activity [4] is on record?
Answer: Active

Question: For Clc1ncnc2c1oc1ccccc12, which Activity [2] is on record?
Answer: 116%

Question: What about the Activity [3] of the same compound?
Answer: 25.49%

Question: Which Activity [4] does the source give for O=C(Cn1ncc(Cl)c(Cl)c1=O)N1CCCC1c1ccc2c(c1)OCCO2 (configuration not stated) here?
Answer: Active

Question: And the Activity [6]?
Answer: 78.23%

Question: What about the Activity [7] of the same compound?
Answer: Active

Question: And the Activity [1]?
Answer: Active

Question: What about the Activity [8] of the same compound?
Answer: Active

Question: And the Activity [9]?
Answer: Active

Question: Which Activity [4] does the source give for CCN(CC)C(=O)c1cccc(NS(=O)(=O)c2ccc(-n3ncc(Cl)c(Cl)c3=O)cc2)c1 here?
Answer: Active

Question: And the Activity [2]?
Answer: 98%

Question: What about the Activity [3] of the same compound?
Answer: 30.8%

Question: Which Activity [10] does the source give for COc1ccc(OC)c(NC(=O)c2c(Cl)nc(Cl)c(Cl)c2Cl)c1 here?
Answer: Active

Question: And the Activity [11]?
Answer: Active

Question: And the Activity [4]?
Answer: inactive

Question: What about the Activity [12] of the same compound?
Answer: Dose-dependent effect

Question: What about the Activity [6] of the same compound?
Answer: 73.78%

Question: And the Activity [7]?
Answer: Active

Question: And the Activity [1]?
Answer: inactive

Question: What about the Activity [2] of the same compound?
Answer: 69%

Question: What about the Activity [9] of the same compound?
Answer: Active

Question: And the Activity [13]?
Answer: inactive

Question: And the Retention_time [14]?
Answer: 3.48 min

Question: And the Activity [3]?
Answer: 39.27%

Question: With CN(C(=O)Cn1ncc(Br)c(Br)c1=O)C1CCCc2ccccc21 (configuration not stated) as the compound, how does the Activity [15] read?
Answer: inactive

Question: And the Activity [11]?
Answer: Active

Question: And the Activity [4]?
Answer: Active

Question: And the Activity [6]?
Answer: 63.96%

Question: And the Activity [7]?
Answer: Active

Question: And the Activity [1]?
Answer: 38%

Question: And the Activity [16]?
Answer: 23.1%

Question: What about the Activity [17] of the same compound?
Answer: Active

Question: What about the Activity [2] of the same compound?
Answer: 60%

Question: What about the Activity [9] of the same compound?
Answer: Active

Question: And the Retention_time [14]?
Answer: 3.41 min

Question: What about the Activity [3] of the same compound?
Answer: 9.56%

Question: With O=c1c(Cl)c(Cl)cnn1-c1ccc(S(=O)(=O)NCc2cc(-c3ccccc3)no2)cc1 as the compound, how does the Activity [2] read?
Answer: 129%

Question: What about the Activity [3] of the same compound?
Answer: 24.31%

Question: What does the source list for O=C(Cn1ncc(Cl)c(Cl)c1=O)N1CCc2cc(S(=O)(=O)N3CCCCC3)ccc21?
Answer: Activity [2]: 104%; Activity [3]: 35.26%

Question: Which Activity [4] does the source give for Cc1cccc(NC(=O)c2nc(Cl)c(Cl)c(Cl)c2Cl)c1C here?
Answer: Active

Question: Which results are given for CCS(=O)(=O)c1ncc(Cl)c(C(=O)Nc2ccc(-c3nc4ccc(C)cc4s3)cc2)n1?
Answer: Activity [2]: 127%; Activity [3]: 37.49%

Question: With N#Cc1c(Cl)nc(N2CCOCC2)c(Cl)c1Cl as the compound, how does the Activity [2] read?
Answer: 82%

Question: And the Activity [3]?
Answer: 22.32%

Question: Which results are given for Cc1cccc(CS(=O)(=O)c2ncc(Cl)c(C(=O)Nc3nc4ccc(C)cc4s3)n2)c1?
Answer: Activity [2]: 106%; Activity [3]: 37.21%

Question: What does the source list for O=C(Cn1ncc(Cl)c(Cl)c1=O)N(C1=CCCCC1)C1CC1?
Answer: Activity [2]: 70%; Activity [3]: 38.9%

Question: Which Activity [2] does the source give for O=C(Cn1ncc(Cl)c(Cl)c1=O)N(Cc1ccco1)CC(F)(F)F here?
Answer: 75%

Question: What about the Activity [3] of the same compound?
Answer: 35.84%

Question: For CCS(=O)(=O)c1ncc(Cl)c(C(=O)Nc2c(C(=O)Nc3ccccc3)oc3ccccc23)n1, which Activity [2] is on record?
Answer: 83%

Question: And the Activity [3]?
Answer: 39.62%

Question: Which Activity [4] does the source give for CC(=O)c1ccc(N2CCN(C(=O)Cn3ncc(Cl)c(Cl)c3=O)CC2)c(F)c1 here?
Answer: Active

Question: And the Activity [2]?
Answer: 113%

Question: What about the Activity [3] of the same compound?
Answer: 30.95%

Question: With O=c1c(Cl)c(Cl)cnn1Cc1nc2ccccc2n1C(F)F as the compound, how does the Activity [2] read?
Answer: 111%

Question: What about the Activity [3] of the same compound?
Answer: 31.86%

Question: For COc1ccc(N(C)C(=O)c2nc(Cl)c(Cl)c(Cl)c2Cl)cc1OC, which Activity [4] is on record?
Answer: Active

Question: What does the source list for O=C(Nc1ccccc1Br)c1c(Cl)nc(Cl)c(Cl)c1Cl?
Answer: Activity [4]: Active; Activity [2]: 91%; Activity [3]: 36.07%

Question: What does the source list for CCCS(=O)(=O)c1ncc(Cl)c(C(=O)Nc2nc(C)c(C(=O)OCC(C)C)s2)n1?
Answer: Activity [2]: 130%; Activity [3]: 23.2%

Question: Which Activity [2] does the source give for CCOC(=O)C1CCN(C(=O)Cn2ncc(Cl)c(Cl)c2=O)CC1 here?
Answer: 95%

Question: What about the Activity [3] of the same compound?
Answer: 35.47%

Question: For CCCNC(=O)c1c(Cl)nc(Cl)c(Cl)c1Cl, which Activity [4] is on record?
Answer: Active

Question: Which results are given for Cc1nnc(NC(=O)c2nc(S(=O)(=O)Cc3ccccc3)ncc2Cl)s1?
Answer: Activity [2]: 92%; Activity [3]: 34.32%

Question: Which results are given for O=c1cc(Cn2ncc(Cl)c(Cl)c2=O)[nH]c(=O)[nH]1?
Answer: Activity [5]: inactive; Activity [4]: Active; Activity [6]: 9.73%; Activity [7]: Active; Activity [1]: inactive; Activity [18]: 21.3%

Question: For COCCOc1ccc(CNC(=O)c2nc(Cl)c(Cl)c(Cl)c2Cl)cc1, which Activity [4] is on record?
Answer: Active

Question: What does the source list for O=C(CN1CCCC1c1ccc2c(c1)OCCO2)Cn1ncc(Cl)c(Cl)c1=O (configuration not stated)?
Answer: Activity [2]: 163%; Activity [3]: 19.2%

Question: With CC(=O)c1c(C)[nH]c(C(=O)Cn2ncc(Cl)c(Cl)c2=O)c1C as the compound, how does the Activity [4] read?
Answer: Active

Question: And the Activity [2]?
Answer: 100%

Question: And the Activity [3]?
Answer: 32.83%

Question: With CC(C)N(C(=O)Cn1ncc(Br)c(Br)c1=O)c1ccccc1 as the compound, how does the Activity [4] read?
Answer: Active

Question: What about the Activity [2] of the same compound?
Answer: 67%

Question: What about the Activity [3] of the same compound?
Answer: 20.43%

Question: Which results are given for O=C(NCc1ccc(Cl)cc1)c1c(Cl)nc(Cl)c(Cl)c1Cl?
Answer: Activity [4]: Active; Activity [2]: 87%; Activity [3]: 30.39%

Question: With COc1ccc2nc(NC(=O)c3nc(S(C)(=O)=O)ncc3Cl)sc2c1 as the compound, how does the Activity [2] read?
Answer: 107%

Question: And the Activity [3]?
Answer: 30.72%
